Assay results reported in patent US20230077280A1, “THERAPEUTIC COMPOUNDS FOR METHODS OF USE IN INSULIN RESISTANCE” (Baylor College of Medicine, priority 2019, published 2023).

Columns and labels:
[1] = test system: mice with CKD; test: CKD mice (subtotal nephrectomy): body weight, fasting blood glucose, glucose tolerance test; assay type: in vivo
Procedure: Animals: The experimental procedures were approved by the Institutional Animal Care and Use Committee of Baylor College of Medicine. Wild type (WT) mice (C57BL/6) were purchased from Jackson lab (Bar Harbor, Me.). To create a model of CKD, 8-10 week old mice underwent subtotal nephrectomy or sham-operated control as described; ^31 CKD mice with a BUN ˜80 mg/dl were studied. CKD or sham-operated control mice were assigned to two subgroups: one subgroup was injected intraperitoneally with TTI-101 (12.5 mg/kg body weight in D5W) every other day for 2 weeks, while the other subgroup received an identical volume of D5W for 2 weeks. For glucose tolerance tests (GTT), mice with free access to water were fasted for 16 hrs and then injected intraperitoneally (i.p.) with […] and tail vein blood was collected at 0, 30, 60 and 120 min intervals to measure blood glucose concentrations using a True Track Glucometer. For insulin tolerance test (ITT), mice were fasted for 4 hrs, then were injected i.p. with 2 units/kg insulin; tail vein blood was collected after 0, 30, 60 and 120 min to measure blood glucose concentrations. Changes in blood glucose were analyzed as the “area under curve” (AUC) method using Statstodo program (http://www.statstodo.com/AUC_Exp.php).

[2] = test system: p-Stat3; test: Western blotting of gastrocnemius muscle lysates of CKD mice: p-Stat3; assay type: in vivo; details: 12.5 mg/kg i.p. every other day for 2 weeks, western blotting (FIG. 1D)
Procedure: Animals: The experimental procedures were approved by the Institutional Animal Care and Use Committee of Baylor College of Medicine. Wild type (WT) mice (C57BL/6) were purchased from Jackson lab (Bar Harbor, Me.). To create a model of CKD, 8-10 week old mice underwent subtotal nephrectomy or sham-operated control as described; ^31 CKD mice with a BUN 80 mg/dl were studied. […] Antibodies: The primary antibodies of p-Akt (Ser473) (D9E) #4060, Akt (40D4)#2920, p-Stat3 (Tyr705) ([MUT])#9145, Stat3(124H6)#9139 were from Cell Signaling technology (Beverly, Mass., USA). Antibody against Fbxo40 #ab190688 was from Abcam (Cambridge, Mass., USA). Antibody against IRS1 #611395 was obtained from BD Biosciences (San Jose, Calif.). Anti-GAPDH#PA1-987 was from Thermo Fisher Scientific. The antibody was verified by the molecular size of recognized proteins.

[3] = test system: p-Akt; test: Western blotting of gastrocnemius muscle lysates of CKD mice: p-Akt; assay type: in vivo; details: 12.5 mg/kg i.p. every other day for 2 weeks, western blotting (FIG. 1D)
Procedure: (§1) Animals: The experimental procedures were approved by the Institutional Animal Care and Use Committee of Baylor College of Medicine. Wild type (WT) mice (C57BL/6) were purchased from Jackson lab (Bar Harbor, Me.). To create a model of CKD, 8-10 week old mice underwent subtotal nephrectomy or sham-operated control as described; ^31 CKD mice with a BUN 80 mg/dl were studied. CKD or sham-operated control mice were assigned to two subgroups: one subgroup was injected intraperitoneally with TTI-101 (12.5 mg/kg body weight in D5W) every other day for 2 weeks, while the other subgroup received an identical volume of D5W for 2 weeks. Antibodies: The primary antibodies of p-Akt (Ser473) (D9E) #4060, Akt (40D4)#2920, p-Stat3 (Tyr705) ([…])#9145, Stat3(124H6)#9139 were from Cell Signaling technology (Beverly, Mass., USA). Antibody against Fbxo40 #ab190688 was from Abcam (Cambridge, Mass., USA). Antibody against IRS1 #611395 was obtained from BD Biosciences (San Jose, Calif.). Anti-GAPDH#PA1-987 was from Thermo Fisher Scientific. The antibody was verified by the molecular size of recognized proteins.

[4] = test system: Fbxo40; test: qPCR of Fbxo40 mRNA in TA muscles of CKD mice; assay type: in vivo; details: vs D5W diluent (FIG. 2G)
Procedure: (§2) Animals: The experimental procedures were approved by the Institutional Animal Care and Use Committee of Baylor College of Medicine. Wild type (WT) mice (C57BL/6) were purchased from Jackson lab (Bar Harbor, Me.). To create a model of CKD, 8-10 week old mice underwent subtotal nephrectomy or sham-operated control as described; ^31 CKD mice with a BUN ˜80 mg/dl were studied. CKD or sham-operated control mice were assigned to two subgroups: one subgroup was injected intraperitoneally with TTI-101 (12.5 mg/kg body weight in D5W) every other day for 2 weeks, while the other subgroup received an identical volume of D5W for 2 weeks.
(§3) RNA extraction and quantitative real-time PCR (qPCR): RNAs were isolated using the RNeasy kit (Qiagen, Valencia, Calif.) as instructed by the company. RT-PCR was performed to obtain relative gene expressions by calculating cycle threshold (Ct) values using GAPDH as an internal control (relative expression=2(sample Ct−GAPDH Ct)).^35 Sequences of primers will be provided upon request.

[5] = test system: IRS1; test: qPCR of IRS1 mRNA in TA muscles of CKD mice; assay type: in vivo; details: vs D5W diluent (FIG. 2H)
Procedure: as §2, §3

[6] = test system: Fbxo40; test: Western blotting of tibialis anterior muscle lysates of CKD mice: Fbxo40 protein; assay type: in vivo; details: western blotting (FIGS. 2I and 2J)
Procedure: as §1

[7] = test system: HFD-fed mice; test: High fat diet (HFD) mice: fasting blood glucose, glucose tolerance test, insulin tolerance test; assay type: in vivo; details: mice fed HFD 12 weeks
Procedure: Another model was generated of insulin resistance by feeding wild type mice a high fat diet (HFD: 58% kcal from fat, Research Diets, New Brunswick, N.J.) for 12 weeks while control mice were fed the regular diet (RD: 11% kcal from fat). To study the effect of p-Stat3 on insulin resistance, HFD-fed mice were randomly assigned to two subgroups: one subgroup was injected intraperitoneally (i.p.) with TTI-101 (12.5 mg/kg body weight in D5W) every other day for 4 weeks, while the other subgroup received an identical volume of D5W for 4 weeks. For glucose tolerance tests (GTT), mice with free access to water were fasted for 16 hrs and then injected intraperitoneally (i.p.) with […] and tail vein blood was collected at 0, 30, 60 and 120 min intervals to measure blood glucose concentrations using a True Track Glucometer. For insulin tolerance test (ITT), mice were fasted for 4 hrs, then were injected i.p. with 2 units/kg insulin; tail vein blood was collected after 0, 30, 60 and 120 min to measure blood glucose concentrations. Changes in blood glucose were analyzed as the “area under curve” (AUC) method using Statstodo program (http://www.statstodo.com/AUC_Exp.php).

[8] = test system: IRS1; test: Western blotting of muscle lysates of HFD mice: IRS1; assay type: in vivo; details: 12.5 mg/kg i.p. every other day for 4 weeks, vs diluent (FIG. 3J)
Procedure: (§4) Another model was generated of insulin resistance by feeding wild type mice a high fat diet (HFD: 58% kcal from fat, Research Diets, New Brunswick, N.J.) for 12 weeks while control mice were fed the regular diet (RD: 11% kcal from fat). To study the effect of p-Stat3 on insulin resistance, HFD-fed mice were randomly assigned to two subgroups: one subgroup was injected intraperitoneally (i.p.) with TTI-101 (12.5 mg/kg body weight in D5W) every other day for 4 weeks, while the other subgroup received an identical volume of D5W for 4 weeks. Antibodies: The primary antibodies of p-Akt ([…]) (D9E) #4060, Akt (40D4)#2920, p-Stat3 ([…]) (D3A7)#9145, Stat3(124H6)#9139 were from Cell Signaling technology (Beverly, Mass., USA). Antibody against Fbxo40 #ab190688 was from Abcam (Cambridge, Mass., USA). Antibody against IRS1 #611395 was obtained from BD Biosciences (San Jose, Calif.). Anti-GAPDH#PA1-987 was from Thermo Fisher Scientific. The antibody was verified by the molecular size of recognized proteins.

[9] = test system: p-Akt; test: Western blotting of muscle lysates of HFD mice: p-Akt; assay type: in vivo; details: 12.5 mg/kg i.p. every other day for 4 weeks, vs diluent (FIG. 3J)
Procedure: as §4

[10] = test system: mice with CKD; details: earlier experiments (refs 33, 34); cited from earlier work

Structure (SMILES): COc1ccc(S(=O)(=O)Nc2cc(-c3c(O)ccc4ccccc34)c(O)c3ccccc23)cc1 [TTI-101, N-(1′,2-dihydroxy-1,2′-binaphthalen-4′-yl)-4-methoxybenzenesulfonamide]
- glucose tolerance ([1]; 12.5 mg/kg i.p. every other day for 2 weeks, vs D5W diluent (FIG. 1C)): significantly improved
- body weight ([1]; 12.5 mg/kg i.p. every other day, after 2 weeks of treatment, vs D5W diluent (FIG. 1A)): increased
- blood glucose levels (fasting, 16 hr) ([1]; 12.5 mg/kg i.p. every other day, after 2 weeks of treatment, vs D5W diluent (FIG. 1B)): decreased
- p-Stat3 in muscle lysates [2]: suppressed
- p-Akt in muscle lysates [3]: increasing
- Fbxo40 mRNA in muscles [4]: suppression
- IRS1 mRNAs in muscles [5]: increased
- Fbxo40 protein in muscles [6]: significantly decreased
- fasting values of blood glucose ([7]; then 12.5 mg/kg i.p. every other day for 4 weeks with HFD continued, vs diluent (FIG. 3G)): decreased
- glucose tolerance ([7]; then 12.5 mg/kg i.p. every other day for 4 weeks, vs diluent (FIG. 3H)): improved
- insulin tolerance ([7]; then 12.5 mg/kg i.p. every other day for 4 weeks, vs diluent (FIG. 3I)): improved
- IRS1 levels in muscles [8]: higher levels
- p-Akt levels in muscles [9]: higher levels
- body weights of mice [10]: increases
